Measurements reported in patent US20240336647A1, “NUCLEOSIDE ANALOGS AND THERAPEUTIC USE THEREOF” (priority 2023, published 2024).
Entries after “also recorded” stand apart in the source; their conditions may differ.

Tests used:
SARS-COV-2 RdRp [1] = target: T1, SARS-COV-2 RdRp (Severe acute respiratory syndrome coronavirus 2, UniProt P0DTD1); test: Primer extension to determine if m1A is incorporated onto RNA by RdRp via m1ATP (PAGE); format: biochemical; details: CTP, 37° C.
Method: Determine if the m1A or m3C modification could be incorporated onto RNA or DNA by a polymerase via m1ATP or m3CTP, respectively: The SARS-COV-2 RdRp with m1ATP is used as the example. Sources of materials used in the experiment can be found in reference [Apostle et al Preprints doi:10.20944/preprints202311.1268.v1]. RNA duplex [F038]-[F039] (SEQ ID NOs: 12 and 13, FIG. 2) was prepared by annealing the two RNAs using the following procedure. The solution of RNAs [F038] (SEQ ID NO: 12, 20 μM, all concentrations are final) and [F039] (SEQ ID NO: 13, 20 μM) in Tris-HCl (10 mM), and KCI (100 mM) was heated at 94° C. for 5 min. The solution was then cooled to RT slowly giving the [F038]-[F039] (SEQ ID NOs: 12 and 13) duplex. […] To another tube containing only the RNA duplex in 10 μL nuclease free water ([…], corresponding to the experiment of lane 1 in FIG. 2) were also added the EDTA and loading dye solutions (same quantities as above, final volume 30 μL). […]
The results of the primer extension reaction is shown in FIG. 2, gel image for determining if m1A could be incorporated onto RNA by SARS-COV-2 RdRp via m1ATP. […] The reaction products were analyzed with PAGE. […]

SARS-COV-2 RdRp [2] = target: T1, SARS-COV-2 RdRp; format: biochemical

Row | SMILES | inhibition of RdRp by m1ATP (SARS-COV-2 RdRp [1]; m1ATP only for 15 min, then ATP, GTP and UTP) | incorporation of m1A into RNA by RdRp via m1ATP (SARS-COV-2 RdRp [1]; m1ATP, GTP, UTP 0.5 mM each, no ATP, 2 h) | effect of the modification in template RNA on RdRp catalytic activity (SARS-COV-2 RdRp [2])
1 | C[n+]1cnc2c(ncn2[C@@H]2O[C@H](COP(=O)(O)OP(=O)(O)OP(=O)(O)O)C(O)C2O)c1N (stereo partly drawn) [m1ATP] | does not inhibit RdRp | m1A can be incorporated into RNA by SARS-COV-2 RdRp via m1ATP; also recorded: m1A could indeed be efficiently incorporated into RNA by SARS-COV-2 RdRp; also recorded: m1A can be incorporated onto RNA | 
2 | C[n+]1c(N)ccn([C@@H]2O[C@H](CO)C(O)C2O)c1=O (stereo partly drawn) [m3C, N3-methylcytidine] |  |  | has minimal impact; also recorded: can be tolerated by the RdRp; also recorded: has little effect on the RdRp
